The target of this test is Sodium channel protein type 9 subunit alpha (Homo sapiens, UniProt Q15858). Kind of test: EFS-FRET Assay: This screen is used to determine the effects of compounds on human Nav1.7 channels, utilizing electrical field stimulation (EFS) system in 96-well plate format on FDSS (Hamamatsu Photonics) platform. The changes of membrane potential are monitored with FRET dye pair, DiSBAC2(3) and PTS 18.
Sequence of Sodium channel protein type 9 subunit alpha (Q15858 whole entry): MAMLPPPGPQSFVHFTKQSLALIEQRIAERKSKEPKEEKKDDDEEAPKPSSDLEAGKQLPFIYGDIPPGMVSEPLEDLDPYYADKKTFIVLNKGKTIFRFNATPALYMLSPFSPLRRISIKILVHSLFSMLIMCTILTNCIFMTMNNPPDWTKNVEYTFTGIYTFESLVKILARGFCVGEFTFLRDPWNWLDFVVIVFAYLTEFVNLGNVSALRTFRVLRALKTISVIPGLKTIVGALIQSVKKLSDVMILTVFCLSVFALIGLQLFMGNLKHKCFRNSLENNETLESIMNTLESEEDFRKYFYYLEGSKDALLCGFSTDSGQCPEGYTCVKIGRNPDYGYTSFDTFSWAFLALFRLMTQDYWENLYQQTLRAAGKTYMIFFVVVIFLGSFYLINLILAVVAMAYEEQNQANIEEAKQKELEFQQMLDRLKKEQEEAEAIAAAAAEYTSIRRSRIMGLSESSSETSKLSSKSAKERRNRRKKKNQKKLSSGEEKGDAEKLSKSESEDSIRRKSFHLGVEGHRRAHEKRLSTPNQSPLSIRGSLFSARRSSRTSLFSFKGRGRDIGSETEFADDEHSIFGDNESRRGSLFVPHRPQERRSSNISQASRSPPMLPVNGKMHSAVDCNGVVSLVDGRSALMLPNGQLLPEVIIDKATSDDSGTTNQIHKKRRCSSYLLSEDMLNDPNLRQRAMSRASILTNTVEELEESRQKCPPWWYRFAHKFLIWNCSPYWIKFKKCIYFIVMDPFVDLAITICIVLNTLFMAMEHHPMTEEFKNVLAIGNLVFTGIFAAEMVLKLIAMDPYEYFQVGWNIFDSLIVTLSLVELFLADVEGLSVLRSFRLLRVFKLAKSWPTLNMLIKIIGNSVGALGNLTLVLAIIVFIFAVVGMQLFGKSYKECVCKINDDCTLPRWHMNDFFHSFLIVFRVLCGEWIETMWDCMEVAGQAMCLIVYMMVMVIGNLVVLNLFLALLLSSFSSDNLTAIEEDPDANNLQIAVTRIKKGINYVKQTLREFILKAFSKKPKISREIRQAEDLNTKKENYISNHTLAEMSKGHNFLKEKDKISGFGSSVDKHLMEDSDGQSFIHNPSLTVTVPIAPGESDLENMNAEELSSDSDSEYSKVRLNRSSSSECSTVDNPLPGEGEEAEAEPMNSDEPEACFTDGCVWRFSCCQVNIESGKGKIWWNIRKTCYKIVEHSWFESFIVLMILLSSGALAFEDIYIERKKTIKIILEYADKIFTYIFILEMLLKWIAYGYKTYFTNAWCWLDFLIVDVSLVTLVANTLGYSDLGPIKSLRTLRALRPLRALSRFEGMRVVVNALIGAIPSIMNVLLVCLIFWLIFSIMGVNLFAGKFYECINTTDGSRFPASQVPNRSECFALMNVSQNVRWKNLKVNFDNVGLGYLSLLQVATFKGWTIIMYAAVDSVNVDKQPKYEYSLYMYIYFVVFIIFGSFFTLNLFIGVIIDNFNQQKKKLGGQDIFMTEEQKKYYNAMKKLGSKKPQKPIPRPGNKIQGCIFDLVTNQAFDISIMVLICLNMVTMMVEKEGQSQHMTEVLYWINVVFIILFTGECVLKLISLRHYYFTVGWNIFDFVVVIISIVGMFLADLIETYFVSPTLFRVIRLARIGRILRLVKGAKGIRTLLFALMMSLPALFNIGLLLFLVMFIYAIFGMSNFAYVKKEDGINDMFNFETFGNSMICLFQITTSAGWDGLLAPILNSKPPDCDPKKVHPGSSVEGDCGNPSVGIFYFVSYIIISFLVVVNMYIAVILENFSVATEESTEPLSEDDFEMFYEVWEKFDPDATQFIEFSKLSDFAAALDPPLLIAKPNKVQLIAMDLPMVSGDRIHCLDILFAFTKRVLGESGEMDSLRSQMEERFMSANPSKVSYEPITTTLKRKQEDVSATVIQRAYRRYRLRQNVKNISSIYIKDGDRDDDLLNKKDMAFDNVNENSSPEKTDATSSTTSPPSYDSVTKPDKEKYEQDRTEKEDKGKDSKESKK
`N#Cc1cc(C(=O)NS(=O)(=O)C2CC2)ccc1COc1cccc(-c2ccc(OCC3CC3)nc2)c1` showed an IC50 of under 500 nM.
As for `CS(=O)(=O)NC(=O)c1ccc(COc2cccc(-c3ccn(CC4CC4)n3)c2)c(F)c1`, the figure is under 500 nM.
For the molecule `CS(=O)(=O)NC(=O)c1ccc(COc2cccc(-c3ccc(OCC4CCCC4)nc3)c2)cc1`, the 50% inhibitory concentration (IC50) was under 500 nM.
As to `Cc1nc(OCC2CC2)ccc1-c1cc(OCc2ccc(C(=O)NS(C)(=O)=O)cc2F)ccc1F`, the IC50 is under 500 nM.
As for `CS(=O)(=O)NC(=O)c1ccc(COc2ccc(F)c(-c3cccc(OCC4CC4)n3)c2)c(F)c1`, the figure is under 500 nM; as for `Cc1c(-c2cccc(OCc3ccc(C(=O)NS(C)(=O)=O)cc3F)c2)ccnc1OCC1CC1`, under 500 nM.
For the molecule `COCCOc1cc(OCC2CC2)cc(-c2cc(F)cc(OCc3ccc(C(=O)NS(C)(=O)=O)cc3F)c2)c1`, the half-inhibitory concentration (IC50) was under 500 nM.
As for `CS(=O)(=O)NC(=O)c1ccc(COc2cccc(-c3ccc(OCC4CCOCC4)nc3)c2)cc1`, the figure is under 500 nM; as for `Cc1c(OCC2CC2)ncnc1-c1cc(F)cc(OCc2ccc(C(=O)NS(C)(=O)=O)cc2)c1`, under 500 nM.
Then `CS(=O)(=O)NC(=O)c1ccc(COc2cccc(-c3cc(OCC4CC4)ncn3)c2)c(F)c1`, with under 500 nM; and `CS(=O)(=O)NC(=O)c1ccc(COc2cccc(-c3ccc(OCC4CC4)cc3)c2)cc1`, with under 500 nM; and `CS(=O)(=O)NC(=O)c1ccc(COc2cc(F)cc(-c3ncc(OCC4CC4)cn3)c2)cc1`, with under 500 nM.
`CC(C)(C)OC(=O)N1CC(COc2ccc(-c3cccc(OCc4ccc(C(=O)NS(C)(=O)=O)cc4F)c3)cn2)C1` registered an IC50 of under 500 nM.
In turn, `CS(=O)(=O)NC(=O)c1ccc(COc2cccc(-c3ccc(OCC4CC4)nc3)c2)c(C#N)c1` had an IC50 of under 500 nM.
The molecule `CS(=O)(=O)NC(=O)c1cc(F)c(COc2cc(F)cc(-c3ccc(OCC4CC4)nc3)c2)cc1F` returned an IC50 of under 500 nM.
Then `CC(C)S(=O)(=O)NC(=O)c1ccc(COc2cc(F)cc(-c3ccc(OCC4CC4)nc3)c2)cc1`, with under 500 nM.
As for `CS(=O)(=O)NC(=O)c1ccc(COc2cc(Cl)cc(-c3ccc(OCC4CC4)nc3)c2)cc1`, the figure is under 500 nM.
The molecule `CS(=O)(=O)NC(=O)c1ccc(COc2cccc(-c3cncc(OCC4CC4)n3)c2)c(F)c1` showed an IC50 of under 500 nM.
The molecule `Cc1ccc(OCc2ccc(C(=O)NS(=O)(=O)C3CC3)cc2F)cc1-c1ccc(OCC2CC2)nc1` showed an IC50 of under 500 nM.
As for `CS(=O)(=O)NC(=O)c1ccc(COc2cccc(-c3cnc(OCC4CCC4)c(CO)c3)c2)cc1`, the IC50 was under 500 nM.
In the case of `CS(=O)(=O)NC(=O)c1ccc(COc2cc(Br)cc(-c3ccc(OCC4CC4)nc3)c2)cc1`, the IC50 was under 500 nM.
Then `Cc1c(OCC2CC2)ccnc1-c1cc(F)cc(OCc2ccc(C(=O)NS(C)(=O)=O)cc2)c1`, with under 500 nM; and `CS(=O)(=O)NC(=O)c1ccc(COc2cc(F)cc(-c3cncc(OCC4CC4)n3)c2)cc1`, with under 500 nM; and `CS(=O)(=O)NC(=O)c1ccc(COc2cccc(-c3cccnc3OCC3CC3)c2)cc1`, with under 500 nM.
Regarding `CS(=O)(=O)NC(=O)c1ccc(COc2cccc(-c3cnc(OCC4CC4)nc3)c2)c(F)c1`, the IC50 was under 500 nM.
`CC(C)(C)OC(=O)N1CCC(COc2ccc(-c3cccc(OCc4ccc(C(=O)NS(C)(=O)=O)cc4)c3)cn2)CC1` returned an IC50 of under 500 nM.
`O=C(NS(=O)(=O)c1nccs1)c1ccc(COc2cccc(-c3ccc(OCC4CC4)nc3)c2)cc1` displayed an IC50 of under 500 nM.
Turning to `CS(=O)(=O)NC(=O)c1ccc(COc2cc(F)cc(-c3cc(OCC4CC4)ccn3)c2)cc1`, the IC50 is under 500 nM.
Then `CS(=O)(=O)NC(=O)c1ccc(COc2cc(F)cc(-c3cc(OCC4CC4)ncn3)c2)cc1`, with under 500 nM.
Take `CS(=O)(=O)NC(=O)c1ccc(COc2cccc(-c3ccc(OCC4CC4)nc3)c2)c(Cl)c1`: the IC50 is under 500 nM.
Then `Cc1c(OCC2CC2)ccnc1-c1cccc(OCc2ccc(C(=O)NS(C)(=O)=O)cc2F)c1`, with under 500 nM; and `CS(=O)(=O)NC(=O)c1ccc(COc2cccc(-c3ccc(OCC4CCOCC4)nc3)c2)c(F)c1`, with under 500 nM.
`CS(=O)(=O)NC(=O)c1ccc(COc2cc(C#N)cc(-c3ccc(OCC4CC4)nc3)c2)cc1`: the IC50 is under 500 nM.
Then `O=C(NS(=O)(=O)C1CC1)c1ccc(COc2cccc(-c3ccc(OCC4CC4)nc3)c2)cc1`, with under 500 nM; and `CS(=O)(=O)NC(=O)c1ccc(COc2cc(F)cc(-c3cnc(OCC4CC4)c(Cl)c3)c2)c(F)c1`, with under 500 nM.
`CS(=O)(=O)NC(=O)c1ccc(COc2cccc(-c3cncc(OCC4CC4)c3)c2)c(F)c1`: the IC50 is under 500 nM.
Then `CN(CC1CC1)c1ncc(-c2cccc(OCc3ccc(C(=O)NS(C)(=O)=O)cc3F)c2)cn1`, with under 500 nM; and `Cc1cc(OCC2CC2)ncc1-c1cccc(OCc2ccc(C(=O)NS(C)(=O)=O)cc2)c1`, with under 500 nM.
Take `CS(=O)(=O)NC(=O)c1ccc(COc2cccc(-c3ccc(OCC4CC4)nc3)c2)nc1`: the IC50 is under 500 nM.
Then `CS(=O)(=O)NC(=O)c1ccc(COc2cc(F)cc(-c3cnc(OCC4CCC4)c(CO)c3)c2)cc1`, with under 500 nM; and `CS(=O)(=O)NC(=O)c1ccc(COc2cccc(-c3ccc(OCC4CCC4)nc3)c2)nc1`, with under 500 nM; and `CS(=O)(=O)NC(=O)c1ccc(COc2cccc(-c3ccc(OCC4CCC4)nc3CO)c2)cc1`, with under 500 nM.
The molecule `O=C(NS(=O)(=O)C1CC1)c1ccc(COc2cc(F)cc(-c3ccc(OCC4CC4)nc3)c2)c(F)c1` gave an IC50 of under 500 nM.

As a reminder, the IC50 is the concentration needed to halve the response being measured. A higher IC50 goes with a need for much substance.

Source of the values: ChEMBL document CHEMBL5728485, “Biaryloxy derivatives as TTX-S blockers” (2021).
